This note sets out measurements from patent US20150065544A1, “THERAPEUTIC AGENT AND PREVENTIVE AGENT FOR DEMYELINATING DISEASE” (OSAKA UNIVERSITY, priority 2011, published 2015).

Assay [1] has as its system mouse experimental autoimmune encephalomyelitis (EAE) models. As to the kind of experiment: Clinical symptom scores in mouse experimental autoimmune encephalomyelitis (EAE) model. The class given is in vivo, mouse (SJL/J). Conditions: Day 10 to Day 44 after immunization, versus tap water group 1, FIG. 1. On the procedure:
In mouse experimental autoimmune encephalomyelitis (EAE) models, which are MS animal models, the effects of 2-(3-cyano-4-isobutyloxyphenyl)-4-methyl-5-thiazolecarboxylic acid (Compound A) were investigated. Proteolipid protein (PLP) and complete Freund's adjuvant were administered subcutaneously to 8-week-old female SJL/J mice for immunization to induce EAE. The animals were divided into 3 groups; tap water, 1.5 mg/kg/day of Compound A and 0.75 mg/kg/day of Compound A were administered to the first, second and third group, respectively, by administration in drinking water from Day 10 to Day 44 after the immunization day. Neurological symptoms in the extremities were monitored daily from the day of immunization to Day 44 post-immunization, and the observations were scored as clinical symptoms (Vsevolod Smolianov, et al., Alteration of T cell cytokine production in PLPp-139-151-induced EAE in SJL mice by animmunostimulatory CpG Oligonucleotide. Journal of Neuroinflammation 2011, 8:59).

For assay [2] the test system is unchanged. As to the kind of experiment: Histopathological examination of spinal cord tissues of EAE mice. It counts as in vivo, mouse (SJL/J). Conditions: Day 16 post-immunization.

Take `Cc1nc(-c2ccc(OCC(C)C)c(C#N)c2)sc1C(=O)O` [Compound A, 2-(3-cyano-4-isobutyloxyphenyl)-4-methyl-5-thiazolecarboxylic acid]: the “Clinical symptoms of EAE (neurological symptom scores)” value in assay [1] (group 2: 1.5 mg/kg/day in drinking water) and in assay [1] (group 3: 0.75 mg/kg/day in drinking water) was “suppressed” in each case. Moreover, the “Inflammation in the spinal cord tissues (iNOS-positive cells, activated macrophages, activation of astrocytes)” value in assay [2] (conclusion from FIG. 2) is given as “suppressed inflammation in the tissues”. Further, the “Staining of inducible nitric oxide synthase (iNOS), macrophages and astrocytes in spinal cord tissues” value in assay [2] (group 3: 0.75 mg/kg/day, versus tap water group 1, FIG. 2) is reported as “weak”.
